# Assay results published in patent publication US20110294881A1, “METHODS FOR TREATING LOWER URINARY TRACT DISORDERS USING alpha2delta SUBUNIT CALCIUM CHANNEL MODULATORS WITH SMOOTH MUSCLE MODULATORS” (EDUSA PHARMACEUTICALS, INC., priority 2003, published 2011).
# What was measured:
# [1] = preclinical and clinical studies; broad range of oral doses; cited from earlier work
# [2] = tested on: SCI rats; settings: Cheng et al., 1995, Brain Res. 678:40-48; cited from earlier work
# [3] = tested on: female rats, dilute acetic acid irritated bladder; assay: Dilute acetic acid model, acute anesthetized rats: bladder capacity by cystometry; assay type: in vivo, rat; settings: Example 1; for effectiveness of drug alone on bladder capacity: i.v.; for effective dose range of the drug in combination versus the drug alone (isobologram): individual animals, return to 31% of saline control, FIG. 4
# Method: (§1) Urethane anesthetized (1.2 g/kg) normal female rats were utilized in this study.
# (§2) Animals were dosed by volume of injection=body weight in kg.
# Animal Preparation: Female rats (250-300 g body weight) were anesthetized with urethane (1.2 g/kg) and a saline-filled catheter (PE-50) was inserted into the jugular vein for intravenous drug administration. […] The abdominal cavity was moistened with saline and closed by covering with a thin plastic sheet in order to maintain access to the bladder for emptying purposes. Fine silver or stainless steel wire electrodes were inserted into the external urethral sphincter (EUS) percutaneously for electromyography (EMG).
# Following 30 minutes of AA infusion, 3 vehicle injections were made at 20 minute intervals to determine vehicle effects, if any.
# P<0.050 was considered significant.
# as §1, §2
# [4] = tested on: female cats, dilute acetic acid irritated bladder; assay: Dilute acetic acid model in cats: bladder capacity and voiding efficiency; assay type: in vivo; settings: cat; 30 mg/kg dose alone
# Method: Alpha-chloralose anesthetized (50-100 mg/kg) normal female cats (2.5-3.5 kg; Harlan) were utilized in this study.
# Female cats (2.5-3.5 kg; Harlan) had their food removed the night before the experiment. The following morning, the cat was anesthetized with isoflurane and prepped for surgery using aseptic technique. Polyethylene catheters were surgically placed to permit the measurement of bladder pressure, urethral pressure, arterial pressure, respiratory rate as well as for the delivery of drugs. Fine wire electrodes were implanted alongside the external urethral anal sphincter. Following surgery, the cats were slowly switched from the gas anesthetic isoflurane (2-3.5%) to alpha-chloralose (50-100 mg/kg). During control cystometry, saline was slowly infused into the bladder (0.5-1.0 ml/min) for 1 hour. The control cystometry was followed by 0.5% acetic acid in saline for the duration of the experiment. After assessing the cystometric variables under these baseline conditions, the effects of test drug(s) on micturition were determined via a 3-5 point dose response protocols.
# For the purposes of assessing synergy using all of the data simultaneously, bladder capacity data for each animal were normalized to % Recovery from Irritation, and this index was used as the measure of efficacy. […]
# [5] = tested on: α2δ subunit of calcium channels; settings: Bryans et al. (1999) Med. Res. Rev. 19:149-177; cited from earlier work
structure (smiles),measurement,setting,value
CC(OC(=O)NCC1(CC(=O)O)CCCCC1)OC(=O)C(C)C (stereo not drawn) [XP13512],blood levels of gabapentin after oral prodrug,[1],dose proportional blood levels of gabapentin
COc1cc(CNC(=O)CCCC/C=C/C(C)C)ccc1O [capsaicin],bladder capacity to voiding,[2],not effect bladder capacity to voiding
same,bladder instability,[2],reduce bladder instability
"CCN(CC)CC#CCOC(=O)C(O)(c1ccccc1)C1CCCCC1 (stereo not drawn) [oxybutynin, 4-diethylaminio-2-butynyl phenylcyclohexyglycolate]",effectiveness of drug alone on bladder capacity,[3],modest effectiveness
same,effective dose range of the drug in combination versus the drug alone (isobologram),[3],significantly lower
"NCC1(CC(=O)O)CCCCC1 [gabapentin, 1-(aminomethyl)cyclohexaneacetic acid]",effectiveness of drug alone on bladder capacity,[3],modest effectiveness
same,effective dose range of the drug in combination versus the drug alone (isobologram),[3],significantly lower
same,effect on bladder capacity,[4],no significant effect
"CC(C)C[C@H](CN)CC(=O)O [Pregabalin, (S)-(3-aminomethyl)-5-methylhexanoic acid]",binding affinity for the α2δ subunit of calcium channels relative to gabapentin,[5],even higher binding affinity
